{"source": "BindingDB's records for doi:10.1021/ja00082a004", "about": "(Nci-Fcrdc, 1994)", "note": "pKi: −log10 of the molar value.", "data": [{"target": "T1, Dimer of Gag-Pol polyprotein [489-587] (Human immunodeficiency virus 1, UniProt P12497)", "T1 construct": "489-587", "experiment": "Protease Inhibition Assay", "settings": "pH 4.7; 30 °C", "protocol": "HIV-1 protease activity was measured by a continuous fluorometric assay using the internally quenched fluorogenic substrate DABCYL-GABA-Ser-Gln-Tyr-Pro-Ile-Val-Gln-EDANS (BACHEM; M-1865) and a SPEX FluoroMax spectrofluorometer (excitation 340 nm, emission 490 nm). The apparent Ki was estimated by nonlinear regression (GraFit, Erithacus Software) to the equation for tight-binding inhibitor.", "values": [{"molecule": "CC(C)[C@H](NC(=O)N(C)Cc1ccccn1)C(=O)N[C@@H](Cc1ccccc1)[C@H](O)[C@@H](O)[C@H](Cc1ccccc1)NC(=O)[C@@H](NC(=O)N(C)Cc1ccccn1)C(C)C", "note": "[JMC51852 Inhibitor PP]", "pKi": 10.96}, {"molecule": "CC(C)[C@H](NC(=O)N(C)Cc1ccccn1)C(=O)N[C@@H](Cc1ccccc1)C[C@@H](O)[C@H](Cc1ccccc1)NC(=O)[C@@H](NC(=O)N(C)Cc1ccccn1)C(C)C", "note": "[(2S)-N-[(2S,3R,5S)-3-hydroxy-5-[(2S)-3-methyl-2-{[methyl(pyridin-2-ylmethyl)carbamoyl]amino}butanamido]-1,6-diphenylhexan-2-yl]-3-methyl-2-{[methyl(pyridin-2-ylmethyl)carbamoyl]amino}butanamide]", "pKi": 11.40}, {"molecule": "CC(C)[C@H](NC(=O)N(C)Cc1ccccn1)C(=O)N[C@@H](Cc1ccccc1)[C@@H](O)[C@H](O)[C@H](Cc1ccccc1)NC(=O)[C@@H](NC(=O)N(C)Cc1ccccn1)C(C)C", "note": "[(2S)-N-[(2S,3R,4R,5S)-3,4-dihydroxy-5-[(2S)-3-methyl-2-{[methyl(pyridin-2-ylmethyl)carbamoyl]amino}butanamido]-1,6-diphenylhexan-2-yl]-3-methyl-2-{[methyl(pyridin-2-ylmethyl)carbamoyl]amino}butanamide]", "pKi": 9.95}, {"molecule": "CC(C)[C@H](NC(=O)N(C)Cc1ccccn1)C(=O)N[C@@H](Cc1ccccc1)[C@H](O)[C@H](O)[C@H](Cc1ccccc1)NC(=O)[C@@H](NC(=O)N(C)Cc1ccccn1)C(C)C", "note": "[(2S)-N-[(2S,3R,4S,5S)-3,4-dihydroxy-5-[(2S)-3-methyl-2-{[methyl(pyridin-2-ylmethyl)carbamoyl]amino}butanamido]-1,6-diphenylhexan-2-yl]-3-methyl-2-{[methyl(pyridin-2-ylmethyl)carbamoyl]amino}butanamide]", "pKi": 10.92}]}]}
